# Source: the supplement of paper PMC10307832
# Assays:
# Experiment in all cases: relative viability (nuclei count vs DMSO), 5 days (fraction); higher = more cells survive
# Linsitinib + Decitabine = compound: C[C@]1(O)C[C@@H](c2nc(-c3ccc4ccc(-c5ccccc5)nc4c3)c3c(N)nccn32)C1 [Linsitinib] + Nc1ncn([C@H]2C[C@H](O)[C@@H](CO)O2)c(=O)n1 [Decitabine] (partner 2 µM)
# Summary of the method: (§1)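 Relative viability was taken as the ratio of nuclei in treated wells to nuclei in vehicle wells. Lung cancer cell lines in 1536-well plates received compounds by pin tool one day after seeding, either one drug alone or a fixed anchor-drug dose plus five library-drug doses (not always all listed) in √10 steps. Nuclei were counted on 4× images after 5 days of treatment, and values are medians of duplicate plates.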
# Linsitinib + Vorinostat = compound: C[C@]1(O)C[C@@H](c2nc(-c3ccc4ccc(-c5ccccc5)nc4c3)c3c(N)nccn32)C1 [Linsitinib] + O=C(CCCCCCC(=O)Nc1ccccc1)NO [Vorinostat] (partner 1 µM)
# Summary of the method: as §1
# Ispinesib + Luminespib = compound: Cc1ccc(C(=O)N(CCCN)[C@@H](c2nc3cc(Cl)ccc3c(=O)n2Cc2ccccc2)C(C)C)cc1 [Ispinesib] + CCNC(=O)c1noc(-c2cc(C(C)C)c(O)cc2O)c1-c1ccc(CN2CCOCC2)cc1 [Luminespib] (partner 0.01 µM)
# Summary of the method: as §1
# Ispinesib + Lapatinib = compound: Cc1ccc(C(=O)N(CCCN)[C@@H](c2nc3cc(Cl)ccc3c(=O)n2Cc2ccccc2)C(C)C)cc1 [Ispinesib] + CS(=O)(=O)CCNCc1ccc(-c2ccc3ncnc(Nc4ccc(OCc5cccc(F)c5)c(Cl)c4)c3c2)o1 [Lapatinib] (partner 2 µM)
# Summary of the method: as §1
cell line,measurement,setting,value
UMC-11,relative viability,Linsitinib + Decitabine; first compound 0.01 µM,0.627
same,relative viability,Linsitinib + Decitabine; first compound 0.03162 µM,0.458
same,relative viability,Linsitinib + Decitabine; first compound 0.1 µM,0.642
same,relative viability,Linsitinib + Decitabine; first compound 0.3162 µM,0.423
same,relative viability,Linsitinib + Decitabine; first compound 1 µM,0.527
same,relative viability,Linsitinib + Vorinostat; first compound 0.01 µM,0.369
same,relative viability,Linsitinib + Vorinostat; first compound 0.03162 µM,0.389
same,relative viability,Linsitinib + Vorinostat; first compound 0.1 µM,0.357
same,relative viability,Linsitinib + Vorinostat; first compound 0.3162 µM,0.217
same,relative viability,Linsitinib + Vorinostat; first compound 1 µM,0.386
same,relative viability,Ispinesib + Luminespib; first compound 0.001 µM,0.919
same,relative viability,Ispinesib + Luminespib; first compound 0.003162 µM,1.02
same,relative viability,Ispinesib + Luminespib; first compound 0.01 µM,1.05
same,relative viability,Ispinesib + Luminespib; first compound 0.03162 µM,0.451
same,relative viability,Ispinesib + Luminespib; first compound 0.1 µM,0.323
same,relative viability,Ispinesib + Lapatinib; first compound 0.001 µM,1.08
same,relative viability,Ispinesib + Lapatinib; first compound 0.003162 µM,0.751
same,relative viability,Ispinesib + Lapatinib; first compound 0.01 µM,0.723
same,relative viability,Ispinesib + Lapatinib; first compound 0.03162 µM,0.294
same,relative viability,Ispinesib + Lapatinib; first compound 0.1 µM,0.216
